# Columns and labels:
# [1] = test system: patients with panic disorder; test: Clinical Global Impression Scale, severity of the disease subscale (CGI-S); assay type: in vivo, human
# Experimental: (§1) This investigator-initiated study was performed under a prospective clinical trial protocol approved by the Institute of Mental Health and Addictology, which is accredited by the Ministry of Health of the Russian Federation to conduct clinical trials (#57689). Study conduct was in compliance with all ethical standards and good clinical practice. Ninety outpatients with a diagnosis of “panic disorder» (F41.0) according to ICD-10 were enrolled through the Institute of Mental Health and Addictology. Five patients dropped out of the study due to minor side effects, predominantly lightheadedness and headaches, and 4 patients dropped out of the study for unspecified reasons. As the intention to treat analysis was not utilized due to the open label design of the study, 81 patients with PD (49 women and 32 men), mean age was 35.2 years (range […]) were studied. Patients were randomized into 2 groups: with “pure” PD (group 1) and “comorbid” PD, when it was co-diagnosed with other mental illnesses (group 2). All patients with isolated PD (Group 1, n=42) received monotherapy with xenon at the aforementioned schedule, while the majority of patients (94.9%) with PD and comorbid conditions, which were predominantly depression (group 2, n=39), in addition to xenon administration continued treatment for comorbid psychiatric disorders, which mainly consisted of antidepressants (SSRIs and SNRIs). In these patients, the reason for xenon treatment was the increase in the frequency and severity of panic attacks despite ongoing treatment with stable pharmacotherapy of at least 3 to 6 months' duration.
# (§2) Administration of xenon was performed through inhalation of xenon-oxygen mixtures that were escalated from 15%/85% to 30%/70% with titration increments of 5% per session. Each patient in the study underwent between 6 and 7 treatments with xenon-oxygen mixture. The first three sessions were carried out daily and from session 4 onward—every other day. The selected dosing regime and the composition of the gas mixtures were based on the historical evidence of safety of subanesthetic use of xenon in imaging.
# (§3) Medical grade xenon (“medksenon»®, 99.9999%, manufacturer: Atommedcenter, Moscow, Russia) and medical grade oxygen in separate containers were admixed. Mixing and administration of gases in preset concentration and volume was accomplished with the use of the medical device MAGi-AMTS1, which enables the operator to adjust the concentration of xenon in the gas mixture, and which contains the electronic flow meter with a software module that allows for such adjustments. Administration of xenon-oxygen mixture to the patient was carried out via a face mask. Patients were asked to slowly inhale, holding breath for 5 to 10 seconds; exhale into the loop and after 35-40 seconds exhale outside the contour and breath in the new portion of gas mixture. Xenon inhalation lasted from 2.5 to 4 minutes, and the xenon consumption was capped at 3.0 liters per procedure. The patients were assessed subjectively by the provider, while the vital signs (pulse, blood pressure, oxygen saturation) were continuously monitored.
# (§4) Patients were evaluated after each xenon inhalation and at 30 and 180 days after completion of treatment. To this end, we employed clinical psychopathological and clinical catamnestic methods, and psychometric scales that are widely used internationally to assess the treatment of mental disorders. Scale Assessment, Zung Self-Rating Anxiety Scale (SAS) was performed prior to starting therapy (V1), and at 1 and 6 months after treatment. According to this scale, SAS index of less than 45 points corresponds to the normal value, 45-59—to mild-to-moderate degree of anxiety, 60-74—to high degree of anxiety, more than 75—to an extremely high-level of anxiety. […]
# [2] = test system: patients with panic disorder; test: Clinical Global Impression Scale, improvement subscale (CGI-I); assay type: in vivo, human
# Experimental: as §1, §2, §3, §4
# [3] = cited from earlier work
# NMDA receptor = NMDA receptor (Homo sapiens, UniProt Q05586); conditions: glycine site of the NMDA receptor; cited from earlier work
# [4] = «Pure PD» (n = 42), total given 39
smiles,measurement,setting,value
[Xe] [xenon],"CGI-S, V2: Moderately expressed disease, share of patients","[1]; Comorbid PD (n = 39), total 42",2.4%
same,"CGI-S, V2: Serious disease, share of patients","[1]; Comorbid PD (n = 39), total 42",4.8%
same,"CGI-S, V2: Significantly expressed disease, share of patients","[1]; Comorbid PD (n = 39), total 42",92.9%
same,"CGI-S, V3: Significantly expressed disease, share of patients","[1]; Comorbid PD (n = 39), total 42",88.1%
same,"CGI-S, V4: Moderately expressed disease, share of patients","[1]; Comorbid PD (n = 39), total 42",52.4%
same,"CGI-S, V4: Significantly expressed disease, share of patients","[1]; Comorbid PD (n = 39), total 42",.0%
same,"CGI-S, V4: Weakly expressed disease, share of patients","[1]; Comorbid PD (n = 39), total 42",47.6%
same,"CGI-S, V5: Borderline state, share of patients","[1]; Comorbid PD (n = 39), total 42",14.3%
same,"CGI-S, V5: Moderately expressed disease, share of patients","[1]; Comorbid PD (n = 39), total 42",.0%
same,"CGI-S, V5: Significantly expressed disease, share of patients","[1]; Comorbid PD (n = 39), total 42",.0%
same,"CGI-S, V5: Weakly expressed disease, share of patients","[1]; Comorbid PD (n = 39), total 42",85.7%
same,"CGI-S, V6: Normal state, share of patients","[1]; Comorbid PD (n = 39), total 42",11.9%
same,"CGI-S, V6: Weakly expressed disease, share of patients","[1]; Comorbid PD (n = 39), total 42",.0%
same,"CGI-S, V3: Moderately expressed disease, share of patients","[1]; Comorbid PD (n = 39), total 42, after the third procedure",11.9%
same,"CGI-S, V6: Borderline state, share of patients","[1]; Comorbid PD (n = 39), total 42, upon completion of xenon treatments",88.1%
same,"CGI-S, V2: Moderately expressed disease, share of patients",[1]; Total (n = 81),24.7%
same,"CGI-S, V2: Serious disease, share of patients",[1]; Total (n = 81),2.5%
same,"CGI-S, V2: Significantly expressed disease, share of patients",[1]; Total (n = 81),72.8%
same,"CGI-S, V3: Moderately expressed disease, share of patients",[1]; Total (n = 81),29.6%
same,"CGI-S, V3: Significantly expressed disease, share of patients",[1]; Total (n = 81),70.4%
same,"CGI-S, V4: Moderately expressed disease, share of patients",[1]; Total (n = 81),51.9%
same,"CGI-S, V4: Significantly expressed disease, share of patients",[1]; Total (n = 81),23.5%
same,"CGI-S, V4: Weakly expressed disease, share of patients",[1]; Total (n = 81),24.7%
same,"CGI-S, V5: Borderline state, share of patients",[1]; Total (n = 81),7.4%
same,"CGI-S, V5: Moderately expressed disease, share of patients",[1]; Total (n = 81),45.7%
same,"CGI-S, V5: Significantly expressed disease, share of patients",[1]; Total (n = 81),1.2%
same,"CGI-S, V5: Weakly expressed disease, share of patients",[1]; Total (n = 81),45.7%
same,"CGI-S, V6: Borderline state, share of patients",[1]; Total (n = 81),85.2%
same,"CGI-S, V6: Normal state, share of patients",[1]; Total (n = 81),6.2%
same,"CGI-S, V6: Weakly expressed disease, share of patients",[1]; Total (n = 81),8.6%
same,"CGI-S, V2: Moderately expressed disease, share of patients",[1]; [4],48.7%
same,"CGI-S, V2: Serious disease, share of patients",[1]; [4],.0%
same,"CGI-S, V2: Significantly expressed disease, share of patients",[1]; [4],51.3%
same,"CGI-S, V3: Significantly expressed disease, share of patients",[1]; [4],51.3%
same,"CGI-S, V4: Moderately expressed disease, share of patients",[1]; [4],51.3%
same,"CGI-S, V4: Significantly expressed disease, share of patients",[1]; [4],48.7%
same,"CGI-S, V4: Weakly expressed disease, share of patients",[1]; [4],.0%
same,"CGI-S, V5: Borderline state, share of patients",[1]; [4],.0%
same,"CGI-S, V5: Moderately expressed disease, share of patients",[1]; [4],94.9%
same,"CGI-S, V5: Significantly expressed disease, share of patients",[1]; [4],2.6%
same,"CGI-S, V5: Weakly expressed disease, share of patients",[1]; [4],2.6%
same,"CGI-S, V6: Normal state, share of patients",[1]; [4],.0%
same,"CGI-S, V6: Weakly expressed disease, share of patients",[1]; [4],17.9%
same,"CGI-S, V3: Moderately expressed disease, share of patients","[1]; «Pure PD» (n = 42), total given 39, after the third procedure",48.7%
same,"CGI-S, V6: Borderline state, share of patients","[1]; «Pure PD» (n = 42), total given 39, upon completion of xenon treatments",82.1%
same,"CGI-I, V2: Marked deterioration, share of patients",[2]; Total (n = 81),1.2%
same,"CGI-I, V2: Marked improvement, share of patients",[2]; Total (n = 81),12.3%
same,"CGI-I, V2: Minimal deterioration, share of patients",[2]; Total (n = 81),1.2%
same,"CGI-I, V2: Minimal improvement, share of patients",[2]; Total (n = 81),54.3%
same,"CGI-I, V2: No changes, share of patients",[2]; Total (n = 81),30.9%
same,"CGI-I, V3: Marked improvement, share of patients",[2]; Total (n = 81),25.9%
same,"CGI-I, V3: Minimal improvement, share of patients",[2]; Total (n = 81),61.7%
same,"CGI-I, V3: No changes, share of patients",[2]; Total (n = 81),12.3%
same,"CGI-I, V4: Marked improvement, share of patients",[2]; Total (n = 81),54.3%
same,"CGI-I, V4: Minimal improvement, share of patients",[2]; Total (n = 81),40.7%
same,"CGI-I, V4: No changes, share of patients",[2]; Total (n = 81),4.9%
same,"CGI-I, V5: Marked improvement, share of patients",[2]; Total (n = 81),79.0%
same,"CGI-I, V5: Minimal improvement, share of patients",[2]; Total (n = 81),18.5%
same,"CGI-I, V5: Very marked improvement, share of patients",[2]; Total (n = 81),2.5%
same,"CGI-I, V6: Marked improvement, share of patients",[2]; Total (n = 81),66.7%
same,"CGI-I, V6: Very marked improvement, share of patients",[2]; Total (n = 81),33.3%
same,"CGI-I, V2: Marked deterioration, share of patients",[2]; «Comorbid PD» (n = 39),.0%
same,"CGI-I, V2: Marked improvement, share of patients",[2]; «Comorbid PD» (n = 39),12.8%
same,"CGI-I, V2: Minimal deterioration, share of patients",[2]; «Comorbid PD» (n = 39),.0%
same,"CGI-I, V2: Minimal improvement, share of patients",[2]; «Comorbid PD» (n = 39),61.5%
same,"CGI-I, V2: No changes, share of patients",[2]; «Comorbid PD» (n = 39),25.6%
same,"CGI-I, V3: Minimal improvement, share of patients",[2]; «Comorbid PD» (n = 39),69.2%
same,"CGI-I, V3: No changes, share of patients",[2]; «Comorbid PD» (n = 39),20.5%
same,"CGI-I, V4: Marked improvement, share of patients",[2]; «Comorbid PD» (n = 39),25.6%
same,"CGI-I, V4: Minimal improvement, share of patients",[2]; «Comorbid PD» (n = 39),64.1%
same,"CGI-I, V4: No changes, share of patients",[2]; «Comorbid PD» (n = 39),10.3%
same,"CGI-I, V5: Marked improvement, share of patients",[2]; «Comorbid PD» (n = 39),61.5%
same,"CGI-I, V5: Minimal improvement, share of patients",[2]; «Comorbid PD» (n = 39),38.5%
same,"CGI-I, V5: Very marked improvement, share of patients",[2]; «Comorbid PD» (n = 39),.0%
same,"CGI-I, V6: Marked improvement, share of patients",[2]; «Comorbid PD» (n = 39),87.2%
same,"CGI-I, V6: Very marked improvement, share of patients","[2]; «Comorbid PD» (n = 39), after 6 treatments",12.8%
same,"CGI-I, V3: Marked improvement, share of patients","[2]; «Comorbid PD» (n = 39), after the third treatment",10.3%
same,"CGI-I, V2: Marked deterioration, share of patients",[2]; «Pure PD» (n = 42),2.4%
same,"CGI-I, V2: Marked improvement, share of patients",[2]; «Pure PD» (n = 42),11.9%
same,"CGI-I, V2: Minimal deterioration, share of patients",[2]; «Pure PD» (n = 42),2.4%
same,"CGI-I, V2: Minimal improvement, share of patients",[2]; «Pure PD» (n = 42),47.6%
same,"CGI-I, V2: No changes, share of patients",[2]; «Pure PD» (n = 42),35.7%
same,"CGI-I, V3: Minimal improvement, share of patients",[2]; «Pure PD» (n = 42),54.8%
same,"CGI-I, V3: No changes, share of patients",[2]; «Pure PD» (n = 42),4.8%
same,"CGI-I, V4: Marked improvement, share of patients",[2]; «Pure PD» (n = 42),81.0%
same,"CGI-I, V4: Minimal improvement, share of patients",[2]; «Pure PD» (n = 42),19.0%
same,"CGI-I, V4: No changes, share of patients",[2]; «Pure PD» (n = 42),.0%
same,"CGI-I, V5: Marked improvement, share of patients",[2]; «Pure PD» (n = 42),95.2%
same,"CGI-I, V5: Minimal improvement, share of patients",[2]; «Pure PD» (n = 42),.0%
same,"CGI-I, V5: Very marked improvement, share of patients",[2]; «Pure PD» (n = 42),4.8%
same,"CGI-I, V6: Marked improvement, share of patients",[2]; «Pure PD» (n = 42),47.6%
same,"CGI-I, V6: Very marked improvement, share of patients","[2]; «Pure PD» (n = 42), after 6 treatments",52.4%
same,"CGI-I, V3: Marked improvement, share of patients","[2]; «Pure PD» (n = 42), after the third treatment",40.5%
same,time at which end-expiratory xenon concentration reached a plateau,[3]; during inhalational anesthesia,7 min
same,time to successful loading of xenon in the brain,[3]; during inhalational anesthesia,approximately 15 minutes
same,half-time for equilibration between xenon concentration in arterial blood and at the site of action,[3]; inhalation,1.49 ± 0.04 min
same,mechanism of inhibition of NMDA receptor activity,NMDA receptor,competitive inhibition of the co-agonist glycine

# Source: US20200054671A1, “TREATMENT OF ANXIETY DISORDER AND AUGMENTATION OF ANTI-ANXIETY INTERVENTIONS BY ADMINISTRATION OF NOBLE GAS CONTAINING MIXTURES” (NOBILIS THERAPEUTICS, INC., priority 2016, published 2020)
